Data published in paper PMC10065799, “High-throughput profiling of sequence recognition by tyrosine kinases and SH2 domains using bacterial peptide display” (eLife, 2023).

Biological target: T1, c-Abl kinase domain (Mus musculus, UniProt P00520)
T1 sequence (P00520 242-493 limits assumed): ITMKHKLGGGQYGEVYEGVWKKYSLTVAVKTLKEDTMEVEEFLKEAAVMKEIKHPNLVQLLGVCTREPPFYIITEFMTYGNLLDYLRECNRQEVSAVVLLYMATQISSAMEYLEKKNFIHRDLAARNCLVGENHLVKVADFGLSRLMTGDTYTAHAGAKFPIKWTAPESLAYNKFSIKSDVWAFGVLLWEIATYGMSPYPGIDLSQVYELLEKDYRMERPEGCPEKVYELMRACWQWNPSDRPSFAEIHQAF
Assay: pTyr-Var library bacterial peptide display kinase screen (enrichment scores)
Type: biochemical
Details: variant versus reference peptide

DRVALYVAREG [AACS_Y117_I118V]
c-Abl difference (mean log2 variant - mean log2 reference): -0.3292
